Experiments:
Format in all cases: physicochemical
[1] = Thermal decomposition / stability of gacyclidine in solution; conditions: for decomposition rate: 54° C.; for Time for 10% Loss: Ringer's Lactate
[2] = Water solubility of gacyclidine forms
Description: (§1) However, in polymeric containers or in the presence of excess precipitated drug, the apparent pKA is perturbed to lower values due to interaction of the basic form of the drug with polymeric surfaces or its own insoluble precipitate. In the conjugate acid form, gacyclidine is extremely water soluble. Solutions of greater than 1 molar (M) concentration can be prepared from the hydrochloride salt. However, solutions of the acid form of the drug are thermally unstable and subject to acid-catalyzed decomposition to give stoichiometric piperidine (1 mole per mole of drug lost) and multiple other organic products.

[3] = Apparent pKA of gacyclidine in aqueous solution
Description: as §1

[4] = Binding (loss) of gacyclidine to silicone; conditions: room temperature, pH 6, 100 μM gacyclidine solution; depends on time and temperature of exposure
Description: Delivery of gacyclidine in such a manner presents numerous challenges, however. Various characteristics of gacyclidine are discussed in more detail below. […] Specifically, catheters, drug reservoirs, pumps, anti-bacterial filters and other components of drug delivery systems are typically fabricated from polymers approved for human implantation.

C[C@H]1CCCC[C@@]1(c1cccs1)N1CCCCC1.Cl [Gacyclidine Hydrochloride Salt, Gacyclidine]
decomposition rate ([1]; 10 mM HCl): 0.52 day⁻¹
Time for 10% Loss ([1]; 37° C., pH 5.5): 3.7 ± 0.1 days
Time for 10% Loss ([1]; 37° C., pH 6.0): 3.82 ± 0.03 days
Time for 10% Loss ([1]; 37° C., pH 7.4): 6.1 ± 0.4 days
Time for 10% Loss ([1]; 37° C., pH 7.4, listed as gacyclidine in the hydrochloride salt form): 6.1 days
time required for 10% loss ([1]; 37° C., slightly acidic conditions): 3.8 days
solubility in water (concentration of clear solution) [2]: greater than 1 M
solubility in water (concentration of clear solution) ([2]; listed as hydrochloride salt of gacyclidine): > 1000 mM

CC1CCCCC1(c1cccs1)N1CCCCC1 (centres unmarked) [Gacyclidine]
temperature dependence of apparent pKA [3]: −0.016 ΔpKA/° C.
apparent pKA in glass vials higher than in polypropylene ([3]; 37° C., 1 mM gacyclidine): about 0.7 pH units
apparent pKA ([3]; room temperature, glass containers): 7.4
apparent pKA (from residual gacyclidine in solution) ([3]; room temperature, 0.1 M hydrochloride salt diluted into buffered aqueous solution to 1 mM, glass or polypropylene vials): 6.7
gacyclidine retained by silicone [4]: up to 60%
pH above which precipitation is observed ([2]; 0.1 M hydrochloride salt diluted into buffered aqueous solution to 1 mM): > 7 pH

CC1CCCCC1(c1cccs1)N1CCCCC1 (centres unmarked) [basic form of gacyclidine, Gacyclidine]
decomposition rate ([1]; 1 mM NaOH): 0.0013 day⁻¹
stability relative to the conjugate acid form ([1]; from decomposition rates at 54° C.): 200-400 times
solubility in water ([2]; above pH 9): < 0.002 mM

From patent publication US20080145439A1, “NA[…] FORMULATIONS” (NEUROSYSTEC CORPORATION, priority 2006, published 2008)
